# Source: patent publication US20160346249A1 (priority 2012, published 2016)
# Experiments:
# [1] = NADPH dependent metabolism, rat liver microsomes; assay type: in vitro ADME; conditions: RLM, from EB-1010 10 μM
# Experimental: Bicifadine (10 μM) was used as the positive control and the formation of the lactam metabolites of bicifadine (M-12) was monitored.
# [2] = Single-dose (25 mg) gender study in males and females (DOV-947-005); assay type: in vivo, human; conditions: for AUC(0-inf) / AUC(0-t) / Cmax / Tmax / half-life: human, in vivo, single oral dose 25 mg
# Male rat fertility study = assay: Male rat fertility study
# Experimental: Physical signs, body weight, and food consumption were recorded periodically. Males were housed for up to 10 nights 1:1 with untreated females following approximately 10 weeks of treatment. Mating was confirmed by daily examination of females for the presence of a vaginal copulatory plug or sperm in a vaginal lavage. The day of observing a seminal plug and/or sperm was considered GD 0. Females were euthanized on GD 15, 16, or 17 and the uterus of each female rat was examined to determine pregnancy status. Corpora lutea per female were counted. Uterine implantations were counted, and each was classified as a live fetus, dead fetus, or a resorption. At termination, the left cauda epididymis from males were weighed, and frozen. Subsequently, these tissues were prepared and analyzed for sperm number. At necropsy, a sperm suspension from the mid-region of the left vas deferens of each male was prepared and evaluated for percent motile sperm (from ≧150 cells per male).
# [3] = Anesthetized dog intravenous cardiovascular study; assay type: in vivo
# Experimental: Whole blood samples were collected via a cannulated femoral vein at 0, 10, 20, and 29 minutes (timed from the start of each dose administration).
# A separate group of 4 dogs was infused with vehicle only (30-60 mL over 90 minutes) for comparison. […] Whole blood samples were collected for determination of peak plasma concentrations (see Section 5.3.3) following infusion of each dose.
# [4] = 2-week dog toxicity and toxicokinetic study; assay type: in vivo
# Experimental: Blood samples were collected on Day 0 and Day 13 of the study from up to 2 animals/gender/group.
# Clinical pathology evaluations (hematology and serum chemistry) were performed prior to the initiation of treatment (Week −1) and just prior to the scheduled necropsy. At termination, necropsies were conducted and selected organs were weighed. Selected tissues were examined microscopically for animals in the control and high-dose groups.
# [5] = Rat CNS study (functional observational battery, locomotor activity); conditions: Crl:CD(SD)IGS BR, in vivo; for mean rearing counts lower than control, 2-minute open field: po; for mean rearing counts lower than control, 2-minute open field / mean urination values higher than control: 1 h
# Experimental: There were eight animals of each gender per group. Functional observational battery (FOB) assessments and automated 1-hour locomotor activity data were recorded for all animals 7 days prior to dose administration (pre-test), and again beginning 1 hour following dosing on Day 0. Following completion of the FOB and locomotor activity evaluations, all animals were euthanized and discarded.
# [6] = Female rat fertility study
# Experimental: Physical signs, body weight, and food consumption were recorded periodically. Females were housed for up to 20 nights 1:1 with untreated males following 3 weeks of treatment. During cohabitation, vaginal lavages were performed daily. The presence of sperm in the lavage or a vaginal plug was considered positive evidence of mating. […] The day of confirmed mating was considered GD 0. Females with a confirmed mating were euthanized between GD 15 and 17. The uterus of each female was examined to determine pregnancy status. If there was no gross evidence of pregnancy, the uterus was stained with ammonium sulfide to visualize any early implantation sites. Corpora lutea per female were counted. Uterine implantations were counted, and each was classified as a live fetus, dead fetus, or a resorption. Fetuses were euthanized by rapid induction of hypothermia and discarded without further examination.
# [7] = Multiple-dose safety and PK study 25 mg BID and 50 mg BID for 10 days; assay type: in vivo, human; conditions: for drug accumulation: 10 days; for Cmax / Tmax / half-life / AUC(0-t): male, human, in vivo, healthy male subjects, mean (SD); for AUC(0-t): read-out: AUC0-12
# Source text: Twenty-two male subjects were randomized for the study and received study medication.
# [8] = female, beagle, in vivo, po, 5 mg/kg/day, females, 5 mg/kg/day, Day 0
# [9] = female, beagle, in vivo, po, 5 mg/kg/day, females, 5 mg/kg/day, Day 13
# [10] = female, beagle, in vivo, po, 10 mg/kg/day, females, 10 mg/kg/day, Day 0
# [11] = female, beagle, in vivo, po, 10 mg/kg/day, females, 10 mg/kg/day, Day 13
# [12] = female, beagle, in vivo, po, 20 mg/kg/day, females, 20 mg/kg/day, Day 0
# [13] = male, beagle, in vivo, po, 5 mg/kg/day, males, 5 mg/kg/day, Day 0
# [14] = male, beagle, in vivo, po, 5 mg/kg/day, males, 5 mg/kg/day, Day 13
# [15] = male, beagle, in vivo, po, 10 mg/kg/day, males, 10 mg/kg/day, Day 0
# [16] = male, beagle, in vivo, po, 10 mg/kg/day, males, 10 mg/kg/day, Day 13
# [17] = male, beagle, in vivo, po, 20 mg/kg/day, males, 20 mg/kg/day, Day 0
# [18] = male, beagle, in vivo, po, 20 mg/kg/day, males, 20 mg/kg/day, Day 13
smiles,measurement,setting,value
"O=C1NCC2(c3ccc(Cl)c(Cl)c3)CC12 (centres unmarked) [EB-10101, 5-(3,4-dichloro-phenyl)-3-aza-bicyclo[3.1.0]hexan-2-one]",amount formed with NADPH vs without NADPH,[1],~5 fold
"Clc1ccc([C@]23CNC[C@H]2C3)cc1Cl [amitifadine, (+)-1-(3,4-dichlorophenyl)-3-azabicyclo[3.1.0]hexane]",QTc prolongation,[2]; 25 mg,no sustained or significant prolongation of QTc
same,gender difference in Cmax or AUC,[2]; 25 mg,no difference in either Cmax or AUC values between the two sexes
same,subjects with orthostatic hypotension,"[2]; all subjects, 25 mg",30%
same,AUC(0-inf),"[2]; female, Females (N = 38)",1590 ng·h/mL
same,AUC(0-t),"[2]; female, Females (N = 38)",1490 ng·h/mL
same,Cmax,"[2]; female, Females (N = 38)",291 ng/mL
same,Tmax,"[2]; female, Females (N = 38)",1.38 h
same,half-life,"[2]; female, Females (N = 38)",3.73 h
same,subjects with orthostatic hypotension,"[2]; females, 25 mg",28.9%
same,AUC(0-inf),"[2]; male, Males (N = 32)",1440 ng·h/mL
same,AUC(0-t),"[2]; male, Males (N = 32)",1360 ng·h/mL
same,Cmax,"[2]; male, Males (N = 32)",273 ng/mL
same,Tmax,"[2]; male, Males (N = 32)",1.27 h
same,half-life,"[2]; male, Males (N = 32)",3.41 h
same,subjects with orthostatic hypotension,"[2]; males, 25 mg",31.3%
same,decrease in sperm count/g cauda epididymis,Male rat fertility study; 13 mg/kg/day,−18%
same,decreased mean body weight gain,Male rat fertility study; 13 mg/kg/day,7%
same,decreases in fecundity and fertility indices,Male rat fertility study; 13 mg/kg/day,−9%
same,decrease in percent motile sperm,Male rat fertility study; 39 mg/kg/day,−33%
same,decreased mean body weight gain,Male rat fertility study; 39 mg/kg/day,9%
same,decreased sperm count/g cauda epididymis,Male rat fertility study; 39 mg/kg/day,−44%
same,decreases in fecundity and fertility indices,Male rat fertility study; 39 mg/kg/day,−9%
same,decreased mean food consumption,"Male rat fertility study; 39 mg/kg/day, first week",−60%
same,mean body weight loss,"Male rat fertility study; 39 mg/kg/day, initial week",-24 g
same,NOEL general and reproductive toxicity,"Male rat fertility study; male, Crl:CD(SD) IGS BR, rat, in vivo, 14 weeks",4 mg/kg/day
same,hemolysis in derived plasma fractions,[3]; IV infusion 2-29 mg/kg cumulative,Dose-related hemolysis was apparent
same,change in BF,[3]; top dose,−57%
same,change in HR,[3]; top dose,+10%
same,change in PR interval vs baseline,[3]; top dose,−9%
same,change in QRS interval vs baseline,[3]; top dose,+2%
same,change in QTC interval vs baseline,[3]; top dose,+2%
same,change in femoral vascular resistance,[3]; top dose,+354%
same,(+) to (−) stereoisomer conversion,[4],no evidence of (+) to (−) stereoisomer conversion
same,NOAEL at 14 days,"[4]; both sexes, beagle, in vivo, oral capsule, 14 days, read-out: NOAEL for systemic toxicity",10 mg/kg/day
same,AUC(0-t),"[4]; female, beagle, in vivo, oral, 10 mg/kg/day, females, 10 mg/kg/day, Day 13, read-out: AUC0-24",11200 ng·h/mL
same,Cmax,[4]; [8],1650 ng/mL
same,Tmax,[4]; [8],2 h
same,AUC(0-t),"[4]; female, beagle, in vivo, po, 5 mg/kg/day, females, 5 mg/kg/day, Day 0, read-out: AUC0-24",5570 ng·h/mL
same,Cmax,[4]; [9],2040 ng/mL
same,Tmax,[4]; [9],1 h
same,AUC(0-t),"[4]; female, beagle, in vivo, po, 5 mg/kg/day, females, 5 mg/kg/day, Day 13, read-out: AUC0-24",5610 ng·h/mL
same,Cmax,[4]; [10],3450 ng/mL
same,Tmax,[4]; [10],1 h
same,AUC(0-t),"[4]; female, beagle, in vivo, po, 10 mg/kg/day, females, 10 mg/kg/day, Day 0, read-out: AUC0-24",15000 ng·h/mL
same,Cmax,[4]; [11],2800 ng/mL
same,Tmax,[4]; [11],2 h
same,Cmax,[4]; [12],9950 ng/mL
same,Tmax,[4]; [12],1 h
same,AUC(0-t),"[4]; female, beagle, in vivo, po, 20 mg/kg/day, females, 20 mg/kg/day, Day 0, read-out: AUC0-24",57100 ng·h/mL
same,Cmax,"[4]; female, beagle, in vivo, po, 20 mg/kg/day, females, 20 mg/kg/day, Day 13",3530 ng/mL
same,AUC(0-t),"[4]; female, beagle, in vivo, po, 20 mg/kg/day, females, 20 mg/kg/day, Day 13, read-out: AUC0-24",11500 ng·h/mL
same,AUC(0-t),"[4]; male, beagle, in vivo, oral, 10 mg/kg/day, males, 10 mg/kg/day, Day 13, read-out: AUC0-24",3170 ng·h/mL
same,Cmax,[4]; [13],1580 ng/mL
same,Tmax,[4]; [13],1 h
same,AUC(0-t),"[4]; male, beagle, in vivo, po, 5 mg/kg/day, males, 5 mg/kg/day, Day 0, read-out: AUC0-24",7360 ng·h/mL
same,Cmax,[4]; [14],1840 ng/mL
same,Tmax,[4]; [14],2 h
same,AUC(0-t),"[4]; male, beagle, in vivo, po, 5 mg/kg/day, males, 5 mg/kg/day, Day 13, read-out: AUC0-24",7550 ng·h/mL
same,Cmax,[4]; [15],3830 ng/mL
same,Tmax,[4]; [15],1 h
same,AUC(0-t),"[4]; male, beagle, in vivo, po, 10 mg/kg/day, males, 10 mg/kg/day, Day 0, read-out: AUC0-24",13800 ng·h/mL
same,Cmax,[4]; [16],1280 ng/mL
same,Tmax,[4]; [16],1 h
same,Cmax,[4]; [17],11600 ng/mL
same,Tmax,[4]; [17],1 h
same,AUC(0-t),"[4]; male, beagle, in vivo, po, 20 mg/kg/day, males, 20 mg/kg/day, Day 0, read-out: AUC0-24",41700 ng·h/mL
same,Cmax,[4]; [18],9280 ng/mL
same,Tmax,[4]; [18],1 h
same,AUC(0-t),"[4]; male, beagle, in vivo, po, 20 mg/kg/day, males, 20 mg/kg/day, Day 13, read-out: AUC0-24",32800 ng·h/mL
same,NOAEL,"[5]; both sexes, single oral gavage, read-out: NOAEL for CNS toxicity",100 mg/kg
same,"mean rearing counts lower than control, 2-minute open field","[5]; female, 30 mg/kg",67.1%
same,"mean rearing counts lower than control, 2-minute open field","[5]; female, 100 mg/kg",78.6%
same,mean urination values higher than control,"[5]; male, 10 mg/kg",approximately 3 fold
same,mean urination values higher than control,"[5]; male, 30 mg/kg",approximately 3 fold
same,mean urination values higher than control,"[5]; male, 100 mg/kg",~5 fold
same,"mean rearing counts lower than control, 2-minute open field","[5]; male, 100 mg/kg",56.5%
same,body weight loss,"[6]; 34 mg/kg/day, first 4 days",-26 g
same,decreased food consumption,"[6]; 34 mg/kg/day, first 4 days",−50%
same,NOEL reproductive performance,[6]; female rats,≥ 34 mg/kg/day
same,NOEL general toxicity,"[6]; female, Crl:CD(SD), rat, in vivo",9 mg/kg/day
same,drug accumulation,[7]; 25 mg BID,1.27
same,drug accumulation,[7]; 50 mg BID,1.44
same,Cmax,"[7]; 25 mg, 25 mg BID, Day 1",327 ng/mL
same,Tmax,"[7]; 25 mg, 25 mg BID, Day 1",0.9 h
same,half-life,"[7]; 25 mg, 25 mg BID, Day 1",3.27 h
same,AUC(0-t),"[7]; 25 mg, 25 mg BID, Day 1",1360 ng·h/mL
same,Cmax,"[7]; 25 mg, 25 mg BID, Day 10",388 ng/mL
same,Tmax,"[7]; 25 mg, 25 mg BID, Day 10",1.07 h
same,half-life,"[7]; 25 mg, 25 mg BID, Day 10",3.34 h
same,AUC(0-t),"[7]; 25 mg, 25 mg BID, Day 10",1700 ng·h/mL
same,Cmax,"[7]; 50 mg, 50 mg BID, Day 1",496 ng/mL
same,half-life,"[7]; 50 mg, 50 mg BID, Day 1",3.19 h
same,AUC(0-t),"[7]; 50 mg, 50 mg BID, Day 1",2240 ng·h/mL
same,Cmax,"[7]; 50 mg, 50 mg BID, Day 10",744 ng/mL
same,Tmax,"[7]; 50 mg, 50 mg BID, Day 10",1.18 h
same,half-life,"[7]; 50 mg, 50 mg BID, Day 10",2.97 h
same,AUC(0-t),"[7]; 50 mg, 50 mg BID, Day 10",3200 ng·h/mL
